Reference: patent US12503432B2, “Ionizable lipids for nucleic acid delivery” (Global Life Sciences Solutions Canada ULC, priority 2019, dated 2025)

Experiment: LNP characterization: size and PDI by dynamic light scattering, mRNA encapsulation efficiency by RiboGreen assay
Type: physicochemical
Description: Particle sizes and “polydispersity index” (PDI) of the lipid particle were measured by dynamic light scattering (DLS). PDI indicates the width of the particle distribution. This is a parameter calculated from a cumulative analysis of the (DLS)-measured intensity autocorrelation function assuming a single particle size mode and a single exponential fit to the autocorrelation function. […] The particles produced by mechanical micromixers such as the NanoAssemblr® Spark™ and NanoAssemblr® Benchtop (Precision NanoSystems Inc.) are substantially homogeneous in size assuming all other variables are neutral. A lower PDI indicates a more homogenous population of lipid particles. The Spark™ instrument is used in a screening setting to identify the lead compositions. Once the composition is selected, the lipid particle can be fine-tuned using the NanoAssemblr® Benchtop. Once the process parameters Flow Rate Ratio and Total Flow Rate is identified for the specific nanoparticle composition, the nanoparticle technology can be scaled up using the same process parameter values.
Lipid particles were also manufactured by a larger microfluidic mixer instrument, the NanoAssemblr® Ignite™ for testing. Briefly, 350 μL of mRNA was diluted using 100 mM sodium acetate buffer to the required concentration of 0.2 to 0.3 mg/mL. Lipid particle samples were then prepared by running both fluids, namely, nucleic acids in aqueous solvent and Lipid Mix in ethanol at a flow ratio of 3:1 and at a total flow rate of 12 ml/min in the microfluidic mixer. Following mixing in the microfluidic device, the post cartridge lipid nucleic acid particle sample was diluted into RNAse free tubes containing three to 40 volumes of phosphate buffered saline (PBS), pH 7.4. Ethanol was finally removed through dialysis in PBS, pH 7, or using Amicon™ centrifugal filters (Millipore, USA) at 3000 RPM, or using TFF systems. Once the required concentration was achieved, the lipid nucleic acid particles were filter sterilized using 0.2 μm filters in aseptic conditions. Final encapsulation efficiency was measured by the Ribogreen™ assay. Quant-iT™ RiboGreen® RNA Reagent and Kit (Invitrogen) following manufacturer directions.
Messenger RNA or plasmid nucleic acid therapeutic (NAT) as described below, was diluted using sodium acetate buffer to the required concentration. Lipid nucleic acid particle (LNAP) samples were then prepared by running both fluids using the NanoAssemblr® Spark instrument. Briefly, […] of nucleic acids in 100 mM sodium acetate buffer in a total volume of 32 μL was mixed with 16 μL of 37.5 mM lipid mix solution as required by the N/P ratios (4, 6, or 10 in illustrated examples). The microfluidically mixed lipid nucleic acid particles (LNAP) made in the instrument were immediately diluted down with 48 μL Ca++ and Mg++ free 1× PBS at pH 7.4 in the aqueous output well. These LNAP were immediately collected into microcentrifuge tubes containing 96 μL of the same buffer at pH 7.4. Encapsulation efficiency was measured by a modified Ribogreen™ assay (Quanti-iT RiboGreen™ RNA assay kit, Fisher). This information was used to establish the desired dosage.
After the lipid particles were made as described in Example 17, particle size (hydrodynamic diameter of the particles) was determined by Dynamic Light Scattering (DLS) using a ZetaSizer™ Nano ZS™ (Malvern Instruments, UK). He/Ne laser of 633 nm wavelength was used as the light source. Data were measured from the scattered intensity data conducted in backscattering detection mode (measurement angle=173). Measurements were an average of 10 runs of two cycles each per sample. Z-Average size was reported as the particle size, and is defined as the harmonic intensity averaged particle diameter. These LNP characteristics, as well as the results of the mRNA encapsulation efficiency for various Lipid Mixes are also described in the application are shown in Tables 4, 5 and 6. […]

[1] = 5-moU EPO encoded LNPs, IL:DSPC:cholesterol:DMG-PEG (50:10:38.5:1.5), N/P 6
[2] = OVA encoded LNPs, payload WT OVA, LM02, N/P 8
[3] = Table 4 LNPs, payload and lipid mix not stated
[4] = OVA encoded LNPs, payload 5-moU OVA, LM02, N/P 8

## CC/C=C\CC1C(CC(=O)OCC(COCCCCCCCC/C=C\C/C=C\CCCCC)OCCCCCCCC/C=C\C/C=C\CCCCC)CCC1OC(=O)CCCN(C)C (stereo not drawn) [PNI 101]
[1]
  Diameter (Z. ave, nm): 97.7 nm
  Encapsulation Efficiency (%): 93.4%
  Polydispersity Index (PDI): 0.08
[2]
  Diameter (Z. ave, nm): 93.2 nm
  Encapsulation Efficiency (%): 98.4%
  Polydispersity Index (PDI): 0.09
[3]
  Diameter (Z. ave, nm): 74.10 nm
  Encapsulation Efficiency (%): 93.0%
  Polydispersity Index (PDI): 0.156

## CC/C=C\CC1C(CC(=O)OCC(COCCCCCCCC/C=C\C/C=C\CCCCC)OCCCCCCCC/C=C\C/C=C\CCCCC)CCC1OC(=O)C1(C)CCN(C)CC1 (stereo not drawn) [PNI 123]
[1]
  Diameter (Z. ave, nm): 76.6 nm
  Encapsulation Efficiency (%): 97.3%
  Polydispersity Index (PDI): 0.04
[2]
  Diameter (Z. ave, nm): 96.5 nm
  Encapsulation Efficiency (%): 76.1%
  Polydispersity Index (PDI): 0.03
[3]
  Diameter (Z. ave, nm): 124.7 nm
  Encapsulation Efficiency (%): 60.1%
  Polydispersity Index (PDI): 0.054

## CC/C=C\CC1C(CC(=O)OCC(COCCCCCCCC/C=C\C/C=C\CCCCC)OCCCCCCCC/C=C\C/C=C\CCCCC)CCC1OC(=O)C1CCN(C)CC1 (stereo not drawn) [PNI 132]
[1]
  Diameter (Z. ave, nm): 70.3 nm
  Encapsulation Efficiency (%): 98.2%
  Polydispersity Index (PDI): 0.04
[2]
  Diameter (Z. ave, nm): 82.6 nm
  Encapsulation Efficiency (%): 97.1%
  Polydispersity Index (PDI): 0.07
[3]
  Diameter (Z. ave, nm): 74.5 nm
  Encapsulation Efficiency (%): 98.2%
  Polydispersity Index (PDI): 0.06

## CC/C=C\CC1C(CC(=O)OC(CCCCCCCCC2CC2CCCCCCCC)CCCCCCCCC2CC2CCCCCCCC)CCC1OC(=O)CCCN(C)C (stereo not drawn) [PNI 516]
[1]
  Diameter (Z. ave, nm): 69.0 nm
  Encapsulation Efficiency (%): 98.7%
  Polydispersity Index (PDI): 0.02
[4]
  Diameter (Z. ave, nm): 76.5 nm
  Encapsulation Efficiency (%): 98.2%
  Polydispersity Index (PDI): 0.04
[2]
  Diameter (Z. ave, nm): 75.9 nm
  Encapsulation Efficiency (%): 98.6%
  Polydispersity Index (PDI): 0.02
[3]
  Diameter (Z. ave, nm): 68.5 nm
  Encapsulation Efficiency (%): 98.7%
  Polydispersity Index (PDI): 0.12

## CC/C=C\CC1C(CC(=O)OCC(COCCCCCCCC/C=C\C/C=C\CCCCC)OCCCCCCCC/C=C\C/C=C\CCCCC)CCC1OC(=O)CCCN(CC)CC (stereo not drawn) [PNI 542]
[1]
  Diameter (Z. ave, nm): 68.5 nm
  Encapsulation Efficiency (%): 98.7%
  Polydispersity Index (PDI): 0.02
[2]
  Diameter (Z. ave, nm): 74.6 nm
  Encapsulation Efficiency (%): 98.7%
  Polydispersity Index (PDI): 0.01
[3]
  Diameter (Z. ave, nm): 79.4 nm
  Encapsulation Efficiency (%): 98.8%
  Polydispersity Index (PDI): 0.04

## CC/C=C\CC1C(CC(=O)OCC(COCCCCCCCCC2CC2CCCCCCCC)OCCCCCCCCC2CC2CCCCCCCC)CCC1OC(=O)CCN(C)C (stereo not drawn) [PNI 544]
[1]
  Diameter (Z. ave, nm): 62.3 nm
  Encapsulation Efficiency (%): 97.6%
  Polydispersity Index (PDI): 0.05
[3]
  Diameter (Z. ave, nm): 51.3 nm
  Encapsulation Efficiency (%): 97.9%
  Polydispersity Index (PDI): 0.04

## CCCCCCCCC1CC1CCCCCCCCOCC(COC(=O)CC1CCC(OC(=O)CCCN(C)C)C1CC1CC1CC)OCCCCCCCCC1CC1CCCCCCCC (stereo not drawn) [PNI 545]
[1]
  Diameter (Z. ave, nm): 59.0 nm
  Encapsulation Efficiency (%): 98.6%
  Polydispersity Index (PDI): 0.04
[3]
  Diameter (Z. ave, nm): 63.9 nm
  Encapsulation Efficiency (%): 98.4%
  Polydispersity Index (PDI): 0.07

## CCCCCCCCC1CC1CCCCCCCCOCC(COC(=O)CC1CCC(OC(=O)CCN(C)C)C1CC1CC1CC)OCCCCCCCCC1CC1CCCCCCCC (stereo not drawn) [PNI 546]
[1]
  Diameter (Z. ave, nm): 56.9 nm
  Encapsulation Efficiency (%): 96.3%
  Polydispersity Index (PDI): 0.09
[3]
  Diameter (Z. ave, nm): 64.0 nm
  Encapsulation Efficiency (%): 96.3%
  Polydispersity Index (PDI): 0.03

## CC/C=C\CC1C(CC(=O)OC(CCCCCCCCC2CC2CCCCCCCC)CCCCCCCCC2CC2CCCCCCCC)CCC1OC(=O)CCN(C)C (stereo not drawn) [PNI 549]
[1]
  Diameter (Z. ave, nm): 62.5 nm
  Encapsulation Efficiency (%): 97.4%
  Polydispersity Index (PDI): 0.06
[3]
  Diameter (Z. ave, nm): 71.2 nm
  Encapsulation Efficiency (%): 96.4%
  Polydispersity Index (PDI): 0.05

## CC/C=C\CC1C(CC(=O)OCCC(CCCCCCCC)OC(=O)C(CCCCCC)CCCCCCCC)CCC1OC(=O)CCN(C)C (stereo not drawn) [PNI 554]
[1]
  Diameter (Z. ave, nm): 55.4 nm
  Encapsulation Efficiency (%): 97.5%
  Polydispersity Index (PDI): 0.09
[3]
  Diameter (Z. ave, nm): 55.1 nm
  Encapsulation Efficiency (%): 96.6%
  Polydispersity Index (PDI): 0.06

## CC/C=C\CC1C(CC(=O)OCC(COCCCCCCCC/C=C\C/C=C\CCCCC)OCCCCCCCC/C=C\C/C=C\CCCCC)CCC1OC(=O)CC1CCN(C)C1 (stereo not drawn) [PNI 557]
[1]
  Diameter (Z. ave, nm): 71.8 nm
  Encapsulation Efficiency (%): 98.9%
  Polydispersity Index (PDI): 0.08
[3]
  Diameter (Z. ave, nm): 95.4 nm
  Encapsulation Efficiency (%): 98.7%
  Polydispersity Index (PDI): 0.02

## CC/C=C\CC1C(CC(=O)OCC(COCCCCCCCC/C=C\C/C=C\CCCCC)OCCCCCCCC/C=C\C/C=C\CCCCC)CCC1OC(=O)CCCN1CCCC1 (stereo not drawn) [PNI 558]
[1]
  Diameter (Z. ave, nm): 73.2 nm
  Encapsulation Efficiency (%): 98.9%
  Polydispersity Index (PDI): 0.03
[3]
  Diameter (Z. ave, nm): 91.2 nm
  Encapsulation Efficiency (%): 98.7%
  Polydispersity Index (PDI): 0.07

## CC/C=C\CC1C(CC(=O)OCC(COCCCCCCCC/C=C\C/C=C\CCCCC)OCCCCCCCC/C=C\C/C=C\CCCCC)CCC1OC(=O)CC1CCCCN1C (stereo not drawn) [PNI 559]
[1]
  Diameter (Z. ave, nm): 64.6 nm
  Encapsulation Efficiency (%): 97.3%
  Polydispersity Index (PDI): 0.03
[3]
  Diameter (Z. ave, nm): 59.4 nm
  Encapsulation Efficiency (%): 95.9%
  Polydispersity Index (PDI): 0.07

## CC/C=C\CC1C(CC(=O)OC(CCCCCCCCC2CC2CCCCCCCC)CCCCCCCCC2CC2CCCCCCCC)CCC1OC(=O)C1(C)CCN(C)CC1 (stereo not drawn) [PNI 560]
[1]
  Diameter (Z. ave, nm): 63.1 nm
  Encapsulation Efficiency (%): 98.7%
  Polydispersity Index (PDI): 0.06
[2]
  Diameter (Z. ave, nm): 76.7 nm
  Encapsulation Efficiency (%): 97.7%
  Polydispersity Index (PDI): 0.05
[3]
  Diameter (Z. ave, nm): 60.5 nm
  Encapsulation Efficiency (%): 98.4%
  Polydispersity Index (PDI): 0.06

## CC/C=C\CC1C(CC(=O)OCCC(CCCCCCCC)OC(=O)C(CCCCCC)CCCCCCCC)CCC1OC(=O)C1(C)CCN(C)CC1 (stereo not drawn) [PNI 565]
[1]
  Diameter (Z. ave, nm): 60.8 nm
  Encapsulation Efficiency (%): 97.9%
  Polydispersity Index (PDI): 0.03
[3]
  Diameter (Z. ave, nm): 69.9 nm
  Encapsulation Efficiency (%): 97.4%
  Polydispersity Index (PDI): 0.03
